Laboratory results published in patent publication US6693118B2, “Use of 4-substituted tetrahydropyridines for the manufacture of medicaments acting upon TGF-β1” (Sanofi-Synthelabo, priority 1997, dated 2004).

Columns and labels:
Assay type in all cases: cell-based
[1] = test system: smooth muscle cells isolated from the human aorta; experiment: Anti-apoptotic effect, apoptosis induced by vincristine (oligonucleosome ELISA); conditions: Vincristin 0.1 pg/ml to 10 ng/ml; after 24 hours of contact with the cells
Protocol: (§1) The anti-apoptotic activity was measured on the same cells vis-à-vis the pro-apoptotic activity of a deprivation in serum or after the addition of toxic compounds such as vincristine or growth factors such as nerve growth factor (NGF) with the aid of a specific ELISA (enzyme-linked immunosorbent assay) determination kit which detects the presence of oligonucleosomes the presence of which inside the cells is a specific marker of programmed cell death (apoptosis), according to the method described by Del Bino G. et al., (Experimental Cell Research, 193, 27, 1991 and 195, 485, 1991) or Darzynkiewicz A et al., (Cytometry, 13, 795, 1992).
(§2) 40,000 smooth muscle cells isolated from the human aorta (supplier: CLONETICS) are placed, in a […], in a medium containing 2 ml of DMEM (Dulbecco Modified Eagle Medium containing 4.5 g/l of glucose, 3.7 g/l of NaHCO3 and not containing any L-glutamine or Na-pyruvate). 20% v/v of foetal calf serum which was desupplemented for 30 min at […] , 4 mM L-glutamine, 50 U/ml of penicillin and 50 μg/ml of streptomycin are added. The cells are left in this medium for a growth period of three days before submitting them to tests according to the examples given further on.
(§3) Dishes containing the cells are prepared as in PREPARATION 1. Apoptosis is induced by three different methods:
c) by adding increasing doses of Vincristin (0.1 pg/ml to 10 ng/ml) to the medium described in PREPARATION 1.
(§4) By an ELISA determination test of the mono- and oligo-nucleosomes associated with cytoplasmic histones after washing and cellular lysis, the effects of the compounds of the invention upon the apoptosis are measured after 24 hours of contact with the cells in comparison with the levels of apoptosis obtained in the absence of products (maximum apoptosis level) or in the presence of 20% foetal calf serum (minimum apoptosis level).
Dishes containing cells are prepared as described in PREPARATION 1. Apoptosis is induced according to method c) of PREPARATION 4. The levels of apoptosis are measured after 24 hours of contact with the cells by the method described in PREPARATION 4; the same controls as in PREPARATION 4 are used.

[2] = test system: smooth muscle cells isolated from the human aorta; experiment: Anti-apoptotic effect, apoptosis induced by NGF (oligonucleosome ELISA); conditions: NGF 0.01 ng/ml to 100 ng/ml; after 24 hours of contact with the cells
Protocol: as §1, §2, §3
b) by adding increasing doses of NGF (0.01 ng/ml to 100 ng/ml) to the medium described in PREPARATION 1;
as §4
Dishes containing cells are prepared as in PREPARATION 1. Apoptosis is induced according to method b) of PREPARATION 4. The apoptosis levels are measured after 24 hours of contact with the cells by the method described in PREPARATION 4; the same controls as in PREPARATION 4 are used.

[3] = test system: TGF-β1; experiment: Levels of latent and activated TGF-β1 in extracellular media of smooth muscle cell cultures (ELISA); conditions: human aortic smooth muscle cells, 0.2% foetal calf serum; after 14 hours of contact with the cells
Protocol: The effect of the compounds of formula (I) upon the increase of the levels of TGF-β1 was evaluated with the aid of tests upon the smooth muscle cells, as well as upon the blood levels and the diaphragms in the rat after administration of the representative compounds of the invention.
Both latent TGF-β1 and activated TGF-β1 were determined on the smooth muscle cells by incubation with hydrochloric acid.
40,000 smooth muscle cells isolated from the human aorta (supplier: CLONETICS) are placed, in a […], in a medium containing 2 ml of DMEM (Dulbecco Modified Eagle Medium containing 4.5 g/l of glucose, 3.7 g/l of NaHCO3 and not containing any L-glutamine or Na-pyruvate). […]
Dishes containing cells are prepared as described in Preparation 1. […] The activated TGF-β1 is determined directly in the supernatants of the culture, but the latent TGF-β1 is determined after activation. […]
Dishes containing cells are prepared as in PREPARATION 1. The levels of TGF-β1 are measured as described in PREPARATION 2. The levels of activated TGF-β1 are measured in the extracellular media in the presence of SR 57746A after 1, 3, 14, 24 and 48 hours and 7 days of contact with the cells, in comparison with the controls (0.2% foetal calf serum and 20% foetal calf serum) by the method described in PREPARATION 2.

Row | SMILES | pro-apoptotic effect of vincristine [1] | pro-apoptotic effect of NGF [2] | levels of activated TGF-β1 in the extracellular media [3]
1 | CCc1ccc(CCN2CC=C(c3cccc(C(F)(F)F)c3)CC2)cc1CC [compound A, 1-[2-(3,4-diethylphenyl)ethyl]-4-(3-trifluoromethylphenyl)-1,2,3,6-tetrahydropyridine] | significantly inhibit | significantly inhibit | 
2 | FC(F)(F)c1cccc(C2=CCN(CCc3ccc4ccccc4c3)CC2)c1 [SR 57746, 1-(2-naphth-2-ylethyl)-4-(3-trifluoromethylphenyl)-1,2,3,6-tetrahydropyridine] | significantly inhibit | significantly inhibit | significant increase
3 | FC(F)(F)c1ccccc1C1=CCN(CCc2ccc(-c3ccccc3)cc2)CC1 [compound F, 1-[2-(biphenyl-4-yl)ethyl]-4-(2-trifluoromethylphenyl)-1,2,3,6-tetrahydropyridine] | significantly inhibit | significantly inhibit | 
4 | FC(F)(F)c1cccc(C2=CCN(CCc3ccc(C4=CCCCC4)cc3)CC2)c1 [compound E, 1-[2-(4-cyclohexenylphenyl)ethyl]-4-(3-trifluoromethylphenyl)-1,2,3,6-tetrahydropyridine] | significantly inhibit | significantly inhibit | 
5 | FC(F)(F)c1cccc(C2=CCN(CCc3ccc4cc5c(cc4c3)OCO5)CC2)c1 [compound D, 1-[2-(6,7-methylenedioxynaphth-2-yl)ethyl]-4-(3-trifluoromethylphenyl)-1,2,3,6-tetrahydropyridine] | significantly inhibit | significantly inhibit | 
6 | O=C(CN1CC=C(c2cccc(C(F)(F)F)c2)CC1)c1ccc(-c2ccccc2)cc1 [compound B, 1-[2-(biphenyl-4-yl)-2-oxoethyl]-4-(3-trifluoromethylphenyl)-1,2,3,6-tetrahydropyridine] | significantly inhibit | significantly inhibit | 
7 | FC(F)(F)c1cccc(C2=CCN(CCc3ccc(-c4ccccc4)cc3)CC2)c1 [compound C, 1-[2-(biphenyl-4-yl)ethyl]-4-(3-trifluoromethylphenyl)-1,2,3,6-tetrahydropyridine] | significantly inhibit | significantly inhibit | 
